From publication PMC9065794 (RSC Advances, 2019)

How the values were obtained:
[1] = target: T1, equine serum butyrylcholinesterase (EqBuChE) (Equus caballus, UniProt P81908); test: Anticholinesterase activity assay; type: biochemical, horse
[2] = target: T2, electric eel acetylcholinesterase (EeAChE) (Electrophorus electricus, UniProt O42275); test: Anticholinesterase activity assay; type: biochemical
[3] = target: T1, equine serum butyrylcholinesterase (EqBuChE); test: Enzymatic kinetic study; type: biochemical, horse
[4] = target: T2, electric eel acetylcholinesterase (EeAChE); test: Enzymatic kinetic study; type: biochemical

T2 sequence (O42275 24-633): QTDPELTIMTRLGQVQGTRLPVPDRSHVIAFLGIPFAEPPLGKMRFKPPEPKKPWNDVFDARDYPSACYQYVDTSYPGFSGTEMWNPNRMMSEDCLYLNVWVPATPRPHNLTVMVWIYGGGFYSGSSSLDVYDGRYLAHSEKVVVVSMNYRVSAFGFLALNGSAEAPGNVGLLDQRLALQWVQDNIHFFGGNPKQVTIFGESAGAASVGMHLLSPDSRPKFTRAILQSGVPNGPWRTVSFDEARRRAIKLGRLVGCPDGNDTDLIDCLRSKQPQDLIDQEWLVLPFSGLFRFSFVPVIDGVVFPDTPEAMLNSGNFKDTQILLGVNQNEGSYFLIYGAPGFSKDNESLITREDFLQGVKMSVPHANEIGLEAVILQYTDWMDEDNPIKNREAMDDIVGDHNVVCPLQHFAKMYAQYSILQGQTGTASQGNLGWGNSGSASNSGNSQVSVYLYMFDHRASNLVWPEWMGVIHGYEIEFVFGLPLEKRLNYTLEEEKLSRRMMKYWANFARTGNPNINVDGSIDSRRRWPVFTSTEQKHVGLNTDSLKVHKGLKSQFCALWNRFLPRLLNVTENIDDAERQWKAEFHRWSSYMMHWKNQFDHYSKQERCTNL
T1 sequence (P81908 whole entry): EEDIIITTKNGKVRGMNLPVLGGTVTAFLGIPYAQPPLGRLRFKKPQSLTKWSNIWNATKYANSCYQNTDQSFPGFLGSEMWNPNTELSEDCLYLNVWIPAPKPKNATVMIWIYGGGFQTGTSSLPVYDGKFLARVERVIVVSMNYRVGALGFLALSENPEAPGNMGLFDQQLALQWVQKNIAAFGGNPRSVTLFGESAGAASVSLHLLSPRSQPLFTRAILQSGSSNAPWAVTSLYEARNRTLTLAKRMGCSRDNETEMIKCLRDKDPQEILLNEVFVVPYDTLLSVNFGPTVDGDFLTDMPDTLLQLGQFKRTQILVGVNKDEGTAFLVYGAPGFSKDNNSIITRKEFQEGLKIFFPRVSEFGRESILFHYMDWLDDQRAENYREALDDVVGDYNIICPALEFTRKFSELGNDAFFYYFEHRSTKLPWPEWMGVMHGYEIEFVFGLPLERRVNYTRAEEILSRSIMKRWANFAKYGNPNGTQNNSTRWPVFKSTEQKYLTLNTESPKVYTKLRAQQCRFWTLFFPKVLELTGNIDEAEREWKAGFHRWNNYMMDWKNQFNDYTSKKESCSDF

c1ccc(CN2CCN(CCCCCNc3nc(-c4ccccc4)n(-c4ccccc4)n3)CC2)cc1 [Compound 13c, N-(5-(4-benzylpiperazin-1-yl)pentyl)-1,5-diphenyl-1H-1,2,4-triazol-3-amine]
IC50 [1]: 1650 ± 59 nM
IC50 [2]: 11000 ± 251 nM

c1ccc(CN2CCN(CCCNc3nc(-c4ccccc4)n(-c4ccccc4)n3)CC2)cc1 [Compound 13a, N-(3-(4-benzylpiperazin-1-yl)propyl)-1,5-diphenyl-1H-1,2,4-triazol-3-amine]
type of inhibition, BuChE [3]: mixed-type inhibition
type of inhibition, AChE [4]: mixed-type inhibition

c1ccc(CN2CCN(CCCCNc3nc(-c4ccccc4)n(-c4ccccc4)n3)CC2)cc1 [Compound 13b, N-(4-(4-benzylpiperazin-1-yl)butyl)-1,5-diphenyl-1H-1,2,4-triazol-3-amine]
IC50 [1]: 1630 ± 111 nM
IC50 [2]: 3790 ± 61 nM

c1ccc(CN2CCN(CCCCCCNc3nc(-c4ccccc4)n(-c4ccccc4)n3)CC2)cc1 [Compound 13d, N-(6-(4-benzylpiperazin-1-yl)hexyl)-1,5-diphenyl-1H-1,2,4-triazol-3-amine]
IC50 [1]: 2210 ± 68 nM
IC50 [2]: 5220 ± 188 nM

Nc1nc(-c2ccccc2)n(-c2ccccc2)n1 [Compound 6a, 1,5-Diphenyl-1,2,4-triazol-3-amine]
cholinesterase inhibition (BuChE), in words ([1]; at 30 μM): no significant cholinesterase inhibition
inhibition at 30 µM ([1]; read-out: BuChE inhibition (class NA in IC50 column)): < 20%
cholinesterase inhibition (AChE), in words ([2]; at 30 μM): no significant cholinesterase inhibition
inhibition at 30 µM ([2]; read-out: AChE inhibition (class NA in IC50 column)): < 20%
